Data reported in patent US20130303518A1, “Methods of Inhibiting the Catalytic Activity of a Protein Kinase and of Treating a Protein Kinase Related Disorder” (JIANGSU HANSOH PHARMACEUTICAL CO., LTD., priority 2007, published 2013).
“Also recorded” adds a separate entry of the source. Marks after values point to notes of the source that are not given here.

Legend:
[1] = tested on: HUVEC cell; assay: Inhibition of cell proliferation assay (SRB) on VEGFR high expressing HUVEC cells; settings: Homo sapiens, 72 h, read-out: IC50 (VEGFR/HUVEC)
Description: The following in vitro assay may be used to determine the level of activity and effect of different compounds of the present invention on the proliferation inhibition (cell toxic) of endothelium growth factor receptor (VEGFR) high expressing Homo sapiens cancer cell-HUVEC cell.
Then the cells are put back to the incubator and cultured for continuous 72 hours. 72 hours later, the cell exposed to compounds and control cell are assayed for their proliferation using Sulforhodamine B (SRB) method.
HUVEC cells were grown in growth media (DMEM/F12, supplemented with 10% FBS) in 100 mm corning culture plates till confluence at 37° C., 5% CO2. • 2. HUVEC cells were washed in 100 mm plates with FBS, then the cells were harvested by trypsinization and seeded to corning 96-well cell culture plates at concentration of 50000 cells/ml, leaving 6 wells/each plate empty as background. • 3. […] The compounds stock solution was prepared, using DMSO to solve candidate compounds to a concentration of 20 mM. Then DMSO was used to dilute the stock solution to a serious concentration of tested compounds solution (namely, 2 mM, 1 mM, 0.2 mM, 20 μM, 2 μM, 0.2 μM). • 5. […] Each DMSO serial concentration compound solution was diluted by 20 times with culture medium by adding 5 μl DMSO compound solution to 95 μl culture medium, then mixed well by vortex. This promised that the DMSO concentration at that the HUVEC cell will exposed to will not surpass 0.5%. • 6. […] Each well was added 180 μl medium, then 20 μl medium solution of tested compounds prepared at step 5 was added to each well. For negative control group cell, 20 μl culture medium containing 0.5% pure DMSO was added. So, HUVEC cells were exposed to each tested compound at a serial final concentration of 100 μM, 10 μM, 5 μM, 1 μM, 0.1 μM, 0.01 μM, and 0.001 μM. • 7. The culture plates were put back to incubator, and cultured for 72 hours at 37° C., 5% CO2. • 8. 72 hours later, cultures were removed from incubator into sterile work area. • 9. The fixative (50% Trichloroacetic Acid-TCA) was prepared by adding reagent grade water to the TCA, fixing the cells by gently layering 50 μl of cold TCA solution on top of the growth medium. • 10. The plates was incubated for 1 hour at 4° C. and then rinsed with water several times to remove TCA, serum proteins, etc. Plates were air dried and stored until use. Bland background optical density was measured in wells incubated with growth medium without cells. • 11. 0.4% Sulforhodamine B solution was prepared by using 10% acetic acid solution. 50 μl sulforhodamine B solution was added to each well of 96-well plates. • 12. The cells were allowed to stain for 30 minutes. • 13. The wash solution of 10% acetic acid was prepared. At the end of the staining period, the stain was removed and the cells were rinsed quickly with 1% acetic acid. Repeat until unincorporated dye was removed. Wash times were kept to a minimum to reduce desorption of protein-bound dye. After being rinsed, the cultures were air dried. • 14. […] Then cultures were allowed to stand for 5 minutes at room temperature, and the mixing of the dye was enhanced by gentle stirring in a gyratory shaker. • 15. The absorbance was measured by spectrophotometry at a wavelength of 565 nm. The background absorbance of 96-well plates at 690 nm was measured and subtracted from the measurement at 565 nm. • 16. The inhibition rate (IR) was calculated as follows:

[2] = biological target: T1, recombinant human VEGF-R2 (Homo sapiens, UniProt P35968); assay: VEGFR-2 kinase assay (ELISA, time-resolved fluorescence); type: biochemical; settings: recombinant human VEGF-R2, 10 μM ATP, 25° C., 30 minutes; read-out: IC50 (VEGFR-2/bio)
T1 construct: purchased Cell signaling technology #7787
T1 sequence (P35968 20-1356): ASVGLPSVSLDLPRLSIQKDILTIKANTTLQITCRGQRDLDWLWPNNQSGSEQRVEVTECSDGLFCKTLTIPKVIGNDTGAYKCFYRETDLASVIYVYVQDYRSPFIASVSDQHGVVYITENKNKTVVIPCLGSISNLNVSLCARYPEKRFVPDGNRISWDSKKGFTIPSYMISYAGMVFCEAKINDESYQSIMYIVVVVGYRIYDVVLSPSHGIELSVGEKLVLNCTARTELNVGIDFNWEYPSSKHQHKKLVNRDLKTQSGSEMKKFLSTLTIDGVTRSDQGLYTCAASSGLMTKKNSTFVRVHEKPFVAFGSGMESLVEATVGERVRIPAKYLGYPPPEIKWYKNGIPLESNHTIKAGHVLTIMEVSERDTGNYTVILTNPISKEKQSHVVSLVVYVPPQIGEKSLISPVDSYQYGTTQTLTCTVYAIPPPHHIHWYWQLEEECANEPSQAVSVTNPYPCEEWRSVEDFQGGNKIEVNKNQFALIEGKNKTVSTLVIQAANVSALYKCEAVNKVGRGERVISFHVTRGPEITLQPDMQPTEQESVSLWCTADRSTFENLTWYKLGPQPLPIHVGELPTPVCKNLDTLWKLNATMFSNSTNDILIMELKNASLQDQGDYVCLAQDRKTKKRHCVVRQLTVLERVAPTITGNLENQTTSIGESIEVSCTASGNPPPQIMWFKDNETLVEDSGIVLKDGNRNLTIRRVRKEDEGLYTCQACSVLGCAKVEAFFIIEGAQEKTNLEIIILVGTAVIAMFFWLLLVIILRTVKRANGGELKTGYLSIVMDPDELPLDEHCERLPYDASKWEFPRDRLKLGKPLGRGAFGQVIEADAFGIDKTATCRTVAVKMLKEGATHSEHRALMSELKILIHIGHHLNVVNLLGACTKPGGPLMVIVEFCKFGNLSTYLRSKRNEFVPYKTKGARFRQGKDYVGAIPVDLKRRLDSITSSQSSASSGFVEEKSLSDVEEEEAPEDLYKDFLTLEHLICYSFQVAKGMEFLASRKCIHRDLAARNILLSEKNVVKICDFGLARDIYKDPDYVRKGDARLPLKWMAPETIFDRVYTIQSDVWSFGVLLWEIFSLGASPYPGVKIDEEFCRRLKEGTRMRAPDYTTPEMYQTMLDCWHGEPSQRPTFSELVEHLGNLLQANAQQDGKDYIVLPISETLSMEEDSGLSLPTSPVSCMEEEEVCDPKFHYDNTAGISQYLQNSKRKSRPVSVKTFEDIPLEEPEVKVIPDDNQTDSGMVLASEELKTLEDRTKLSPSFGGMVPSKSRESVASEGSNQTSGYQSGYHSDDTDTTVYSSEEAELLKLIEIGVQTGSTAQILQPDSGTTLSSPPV
Description: This assay is used to measure the in vitro kinase activity of recombinant human VEGF-R2 in an ELISA assay.
• a. […] Stop Buffer: 50 mM EDTA, pH 8.0. • d.
The following protocol was used: • 1. The test compound was diluted with DMSO to the desired final assay concentration. […] 6 μM substrate peptide (Tyr87) was diluted with dH2O (1:1), 15 μl was added to every assay. • 3. VEGFR-2 enzyme was immediately transferred from −80° C. to ice, and the enzyme was allowed to thaw on ice. • 4. 2.2 μg VEGFR-2 enzyme was taken to the enzyme tube. • 5. […] 0.75 ml of DTT/Kinase buffer was transferred to each enzyme tube to prepare 4× reaction cocktail, and 7.5 μl 4× reaction cocktail was added to every assay. • 7. […] The reaction tube was incubated at 25° C. for 30 minutes. • 9. 30 μl/assay stop buffer (50 mM EDTA, pH 8.0) was added to stop the reaction. • 10. 25 μl of each reaction and 75 μl dH2O/well was transferred to a 96-well streptavidin coated plate, with shaking at room temperature for 60 minutes. • 11. Each well was washed three times with 200 μl PBS-T buffer. Plate was patted on paper towel to remove excess liquid. • 12. […] The reaction tube was incubated, with shaking at room temperature for 60 minutes. • 14. Washing was carried out as described above in step 11. • 15. Europium labeled anti-mouse IgG was diluted 1:500 in PBS-T buffer with 1% BSA, 100 μl diluted antibody was added to each well. • 16. The reaction tube was incubated, with shaking at room temperature for 30 minutes. • 17. Each well was washed five times with 200 μl PBS-T buffer. Plate was patted on paper towel to remove excess liquid. • 18. 100 μl/well DELFIA® Enhancement Solution was added. • 19. The reaction tube was incubated, with shaking at room temperature for 5 minutes. • 20.
The IC50 value can be derived from the IRs of compounds at different concentration gradients.

[3] = tested on: HT-29 human colon cancer; assay: Therapeutic effects against xenografts of HT-29 human colon cancer in nude mice; type: in vivo
Description: The therapeutic effects of Example 63 against xenografts of HT-29 human colon cancer in nude mice were estimated.
The therapeutic effects of the compound of Example 63 against xenografts of HT-29 human colon cancer in nude mice were estimated.
Preparation method: the compound of Example 63 was prepared to corresponding concentration with distilled water.
Six to seven-week-old BALB/cA-nude female mice was purchased from Slaccas Experimental Animal. Certificate No.: SCXK(Shanghai) 2003˜0003. Raising Conditions: SPF level.
Nude mice were hypodermic inoculated HT-29 human colon cancer cell. After tumors grew to 100-300 mm^3, mice were randomly divided into teams (d0). The volume of tumors and weigh of the mice were measured for 2-3 times per week. The calculation formula of the volume of tumor (V) is: V=½×a×b^2, a: length of tumor, b: width of tumor.

| Compound | IC50 [2] | IC50 [1] | other results |
| --- | --- | --- | --- |
| CCN(CC)CCN1CCCc2[nH]c(/C=C3\C(=O)Nc4cc(NCc5ccc(F)cc5)c(F)cc43)c(C)c2C1=O [Example 3, (Z)-5-(2-Diethylamino-ethyl)-2-[5-fluoro-6-(4-fluoro-benzylamino)-2-oxo-1,2-dihydro-indol-3-ylidenemethyl]-3-methyl-5,6,7,8-tetrahydro-1H-pyrrolo[3,2-c]azepin-4-one] | 0.28 µM | 0.1 µM |  |
| Cc1c(/C=C2\C(=O)Nc3c(NC=O)cc(F)cc32)[nH]c2c1C(=O)N(CCN1CCOCC1)CCC2 [Example 20, (Z)—N-{5-Fluoro-3-[3-methyl-5-(2-morpholin-4-yl-ethyl)-4-oxo-1,4,5,6,7,8-hexahydro-pyrrolo[3,2-c]azepin-2-ylmethylene]-2-oxo-2,3-dihydro-1H-indol-7-yl}-formamide] | 0.072 µM |  |  |
| CCN(CC)CCN1CCCc2[nH]c(/C=C3\C(=O)Nc4cc(OC)ccc43)c(C)c2C1=O [Example 15, (Z)-5-(2-Diethylamino-ethyl)-2-(6-methoxy-2-oxo-1,2-dihydro-indol-3-ylidenemethyl)-3-methyl-5,6,7,8-tetrahydro-1H-pyrrolo[3,2-c]azepin-4-one] | 0.002 µM | 1.2 µM |  |
| CCN(CC)CCN1CCCc2[nH]c(/C=C3\C(=O)Nc4ccc(Cl)cc43)c(C)c2C1=O [Example 2] | 0.021 µM | 0.288 µM |  |
| CCN(CC)CCN1CCCc2[nH]c(/C=C3\C(=O)Nc4cc(NC(=O)COC)c(F)cc43)c(C)c2C1=O [Example 7, (Z)—N-{3-[5-(2-Diethylamino-ethyl)-3-methyl-4-oxo-1,4,5,6,7,8-hexahydro-pyrrolo[3,2-c]azepin-2-ylmethylene]-5-fluoro-2-oxo-2,3-dihydro-1H-indol-6-yl}-2-methoxy-acetamide] | 0.69 µM |  |  |
| Cc1c(/C=C2\C(=O)Nc3cccc(-c4cccc(F)c4F)c32)[nH]c2c1C(=O)N(CCN1CCOCC1)CCC2 [Example 12, (Z)-2-[4-(2,3-Difluoro-phenyl)-2-oxo-1,2-dihydro-indol-3-ylidenemethyl]-3-methyl-5-(2-morpholin-4-yl-ethyl)-5,6,7,8-tetrahydro-1H-pyrrolo[3,2-c]azepin-4-one] | 0.001 µM | 0.3 µM |  |
| Cc1c(/C=C2\C(=O)Nc3ccc(Cl)cc32)[nH]c2c1C(=O)N(CCN1CCOCC1)CCC2 [Example 10] | 0.014 µM | 0.123 µM |  |
| CCN(CC)CCN1CCCc2[nH]c(/C=C3\C(=O)Nc4ncc(Br)cc43)c(C)c2C1=O [Example 14] | 0.004 µM | 0.457 µM |  |
| CCN(CC)CCN1CCCc2[nH]c(/C=C3\C(=O)Nc4cccc(C)c43)c(C)c2C1=O [Example 16, (Z)-5-(2-Diethylamino-ethyl)-3-methyl-2-(4-methyl-2-oxo-1,2-dihydro-indol-3-ylidenemethyl)-5,6,7,8-tetrahydro-1H-pyrrolo[3,2-c]azepin-4-one] | 0.0013 µM | 0.21 µM |  |
| CCN(CC)CCN1CCCc2[nH]c(/C=C3\C(=O)Nc4ccc(F)cc43)c(C)c2C1=O [Example 63, malate] |  |  | T/C (%) ([3]; 40 mg/kg p.o d0~12, P < 0.01 vs control): 31.5* %; RTV (relative tumor volume) ([3]; X ± SD, 40 mg/kg p.o d0~12, dn vs d0): 0.80 ± 0.42; TV (volume of tumor) dn ([3]; X ± SD, 40 mg/kg p.o d0~12, dn: the 13th day after the first dosage): 300 ± 154 mm^3; tolerance of mice to the compound (in words) ([3]; continuous oral dosing, nude mice, malate): well tolerant; also recorded: well tolerant to the compound without obvious toxicity |
| COCC(=O)Nc1cc2c(cc1F)/C(=C/c1[nH]c3c(c1C)C(=O)N(CCN1CCOCC1)CCC3)C(=O)N2 [Example 18, (Z)—N-{5-Fluoro-3-[3-methyl-5-(2-morpholin-4-yl-ethyl)-4-oxo-1,4,5,6,7,8-hexahydro-pyrrolo[3,2-c]azepin-2-ylmethylene]-2-oxo-2,3-dihydro-1H-indol-6-yl}-2-methoxy-acetamide] | 0.01 µM |  |  |
| Cc1c(/C=C2\C(=O)Nc3cc(NCc4ccc(F)cc4)c(F)cc32)[nH]c2c1C(=O)N(CCN1CCOCC1)CCC2 [Example 19, (Z)-2-[5-Fluoro-6-(4-fluoro-benzylamino)-2-oxo-1,2-dihydro-indol-3-ylidenemethyl]-3-methyl-5-(2-morpholin-4-yl-ethyl)-5,6,7,8-tetrahydro-1H-pyrrolo[3,2-c]azepin-4-one] | 0.012 µM | 0.146 µM |  |

Further compounds by falling IC50 [2], results first:

| IC50 [2] | Compound | IC50 [1] | other results |
| --- | --- | --- | --- |
| 0.49 µM | CCN(CC)CCN1CCCc2[nH]c(/C=C3\C(=O)Nc4cc(NC(=O)C(C)(C)O)c(F)cc43)c(C)c2C1=O [Example 9, (Z)—N-{3-[5-(2-Diethylamino-ethyl)-3-methyl-4-oxo-1,4,5,6,7,8-hexahydro-pyrrolo[3,2-c]azepin-2-ylmethylene]-5-fluoro-2-oxo-2,3-dihydro-1H-indol-6-yl}-2-hydroxy-2-methyl-propionamide] | 0.068 µM |  |
| 0.16 µM | Cc1c(/C=C2\C(=O)Nc3cc(NC(=O)[C@H](C)O)c(F)cc32)[nH]c2c1C(=O)N(CCN1CCOCC1)CCC2 [Example 21, (S,Z)—N-{5-Fluoro-3-[3-methyl-5-(2-morpholin-4-yl-ethyl)-4-oxo-1,4,5,6,7,8-hexahydro-pyrrolo[3,2-c]azepin-2-ylmethylene]-2-oxo-2,3-dihydro-1H-indol-6-yl}-2-hydroxy-propionamide] |  |  |
| 0.115 µM | CCN(CC)CCN1CCCc2[nH]c(/C=C3\C(=O)Nc4cc(NC(=O)[C@H](C)O)c(F)cc43)c(C)c2C1=O [Example 8, (S,Z)—N-{3-[5-(2-Diethylamino-ethyl)-3-methyl-4-oxo-1,4,5,6,7,8-hexahydro-pyrrolo[3,2-c]azepin-2-ylmethylene]-5-fluoro-2-oxo-2,3-dihydro-1H-indol-6-yl}-2-hydroxy-propionamide] | 0.308 µM |  |
| 0.041 µM | CCN(CC)CCN1CCCc2[nH]c(/C=C3\C(=O)Nc4c(Br)cc(F)cc43)c(C)c2C1=O [Example 4, (Z)-2-(7-Bromo-5-fluoro-2-oxo-1,2-dihydro-indol-3-ylidenemethyl)-5-(2-diethylamino-ethyl)-3-methyl-5,6,7,8-tetrahydro-1H-pyrrolo[3,2-c]azepin-4-one] | 0.404 µM |  |
| 0.023 µM | CCN(CC)CCN1CCCc2[nH]c(/C=C3\C(=O)Nc4cccc(-c5cccc(F)c5F)c43)c(C)c2C1=O [Example 6, (Z)-5-(2-Diethylamino-ethyl)-2-[4-(2,3-difluoro-phenyl)-2-oxo-1,2-dihydro-indol-3-ylidenemethyl]-3-methyl-5,6,7,8-tetrahydro-1H-pyrrolo[3,2-c]azepin-4-one] | 0.28 µM |  |
| 0.0085 µM | CCN(CC)CCN1CCCc2[nH]c(/C=C3\C(=O)Nc4ccc(Br)cc43)c(C)c2C1=O [Example 5] | 0.1 µM |  |
| 0.003 µM | CCN(CC)CCN1CCCc2[nH]c(/C=C3\C(=O)Nc4cccc(Br)c43)c(C)c2C1=O [Example 13, (Z)-2-(4-Bromo-2-oxo-1,2-dihydro-indol-3-ylidenemethyl)-5-(2-diethylamino-ethyl)-3-methyl-5,6,7,8-tetrahydro-1H-pyrrolo[3,2-c]azepin-4-one] | 0.804 µM |  |
| 0.001 µM | CCN(CC)CCN1CCCc2[nH]c(/C=C3\C(=O)Nc4cccc(CCO)c43)c(C)c2C1=O [Example 17, (Z)-5-(2-Diethylamino-ethyl)-2-[4-(2-hydroxy-ethyl)-2-oxo-1,2-dihydro-indol-3-ylidenemethyl]-3-methyl-5,6,7,8-tetrahydro-1H-pyrrolo[3,2-c]azepin-4-one] | 0.129 µM |  |
